The numbers were not newly measured in patent US20260355312A1, “COMBINED THERAPY DRUG COMPRISING ANTI-HER2 BISPECIFIC ANTIBODY AND USE THEREOF” (JIANGSU ALPHAMAB BIOPHARMACEUTICALS CO., LTD., priority 2023, published 2026), which cites them from elsewhere.

In the data set the test system is tumor.

With `CC(=O)O[C@@]12CO[C@@H]1C[C@H](O)[C@@]1(C)C(=O)[C@H](O)C3=C(C)[C@@H](OC(=O)[C@H](O)[C@@H](NC(=O)OC(C)(C)C)c4ccccc4)C[C@@](O)([C@@H](OC(=O)c4ccccc4)[C@H]21)C3(C)C` [Docetaxel, docetaxel], the “antitumor activity compared to paclitaxel” value is “stronger antitumor activity than paclitaxel”.
